From the supplement of paper PMC11451515

Tested on: NOMO1
Test: cell viability relative to DMSO control; higher = less cytotoxic
Details: 48 h
Method in brief: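 In 1536-well plates, 5 μl of leukemia cells were seeded per well: 500 cells/well for NOMO1 or SEM and 1000 cells/well for P12-Ichikawa. Each line had first been adapted for at least four passages in each medium. Library compounds in DMSO were pin-dosed at 11 threefold concentrations between 47 μM and 0.79 nM, and CellTiter-Glo One luminescence was read after 48 h at 37°C. Viability is a per-plate percentage relative to DMSO wells, with cell-free wells as background.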

[1] = HPLM + 10% dialyzed FBS, 0.000781 µM
[2] = HPLM + 10% dialyzed FBS, 0.00234 µM
[3] = HPLM + 10% dialyzed FBS, 0.00702 µM
[4] = HPLM + 10% dialyzed FBS, 0.0211 µM
[5] = HPLM + 10% dialyzed FBS, 0.0632 µM
[6] = HPLM + 10% dialyzed FBS, 0.19 µM
[7] = HPLM + 10% dialyzed FBS, 0.569 µM
[8] = HPLM + 10% dialyzed FBS, 1.71 µM
[9] = HPLM + 10% dialyzed FBS, 5.12 µM
[10] = HPLM + 10% dialyzed FBS, 15.4 µM
[11] = HPLM + 10% dialyzed FBS, 46.1 µM
[12] = RPMI 5 mM glucose + 10% FBS, 0.000781 µM
[13] = RPMI 5 mM glucose + 10% FBS, 0.00234 µM
[14] = RPMI 5 mM glucose + 10% FBS, 0.00702 µM
[15] = RPMI 5 mM glucose + 10% FBS, 0.0211 µM
[16] = RPMI 5 mM glucose + 10% FBS, 0.0632 µM
[17] = RPMI 5 mM glucose + 10% FBS, 0.19 µM
[18] = RPMI 5 mM glucose + 10% FBS, 0.569 µM
[19] = RPMI 5 mM glucose + 10% FBS, 1.71 µM
[20] = RPMI 5 mM glucose + 10% FBS, 5.12 µM
[21] = RPMI 5 mM glucose + 10% FBS, 15.4 µM
[22] = RPMI 5 mM glucose + 10% FBS, 46.1 µM
[23] = RPMI 5 mM glucose + 10% dialyzed FBS, 0.000781 µM
[24] = RPMI 5 mM glucose + 10% dialyzed FBS, 0.00234 µM
[25] = RPMI 5 mM glucose + 10% dialyzed FBS, 0.00702 µM
[26] = RPMI 5 mM glucose + 10% dialyzed FBS, 0.0211 µM
[27] = RPMI 5 mM glucose + 10% dialyzed FBS, 0.0632 µM
[28] = RPMI 5 mM glucose + 10% dialyzed FBS, 0.19 µM
[29] = RPMI 5 mM glucose + 10% dialyzed FBS, 0.569 µM
[30] = RPMI 5 mM glucose + 10% dialyzed FBS, 1.71 µM
[31] = RPMI 5 mM glucose + 10% dialyzed FBS, 5.12 µM
[32] = RPMI 5 mM glucose + 10% dialyzed FBS, 15.4 µM
[33] = RPMI 5 mM glucose + 10% dialyzed FBS, 46.1 µM

SMILES | cell viability [1] | cell viability [2] | cell viability [3] | cell viability [4] | cell viability [5] | cell viability [6] | cell viability [7] | cell viability [8] | cell viability [9] | cell viability [10] | cell viability [11] | cell viability [12] | cell viability [13] | cell viability [14] | cell viability [15] | cell viability [16] | cell viability [17] | cell viability [18] | cell viability [19] | cell viability [20] | cell viability [21] | cell viability [22] | cell viability [23] | cell viability [24] | cell viability [25] | cell viability [26] | cell viability [27] | cell viability [28] | cell viability [29] | cell viability [30] | cell viability [31] | cell viability [32] | cell viability [33]
Clc1ccc(C(c2ccc(Cl)cc2)[n+]2ccn(CC(OCc3ccc(Cl)cc3Cl)c3ccc(Cl)cc3Cl)c2)cc1 (stereo not drawn) | 108% | 99% | 113% | 110% | 107% | 107% | 115% | 102% | 101% | 81.2% | 3.86% | 94.6% | 100% | 105% | 94.7% | 119% | 113% | 91% | 103% | 102% | 74.3% | 3.56% | 105% | 105% | 118% | 114% | 112% | 107% | 98.5% | 91.3% | 90.4% | 83% | 2.5%
CN(C)C(=O)[C@H](O)[C@H](Cc1ccccc1)NC(=O)c1cc2cc(Cl)ccc2[nH]1 | 107% | 107% | 115% | 122% | 122% | 132% | 144% | 145% | 171% | 145% | 138% | 111% | 105% | 103% | 103% | 124% | 126% | 127% | 109% | 123% | 121% | 112% | 83.9% | 109% | 109% | 109% | 113% | 115% | 132% | 133% | 118% | 136% | 126%
CCC[C@H](Nc1nc(-c2ccc(NC(=O)NCC)c(OC)c2)ncc1C)c1cccnc1 | 119% | 109% | 115% | 126% | 47.8% | 41.7% | 44.2% | 48.7% | 45.8% | 48.4% | 39.7% | 114% | 112% | 129% | 115% | 50% | 31.5% | 33.8% | 26.4% | 27.8% | 30.9% | 25.7% | 105% | 120% | 122% | 125% | 34.6% | 35.3% | 39.2% | 31.2% | 23.9% | 31.1% | 28.7%
N#Cc1cc(NC(=O)Nc2nnc(-c3ccncc3)s2)ccc1-c1cn[nH]c1 | 117% | 118% | 115% | 110% | 116% | 114% | 113% | 130% | 121% | 123% | 106% | 108% | 100% | 114% | 124% | 114% | 115% | 99.6% | 114% | 105% | 127% | 101% | – | – | – | – | – | – | – | – | – | – | –
Clc1ccc(CCC(Cn2ccnc2)Sc2c(Cl)cccc2Cl)cc1 (stereo not drawn) | 87.3% | 85.2% | 98% | 103% | 107% | 90.8% | 98.5% | 87% | 93.9% | 93.6% | 90.4% | 77.8% | 80.1% | 86.7% | 83.4% | 89.2% | 88.2% | 86.9% | 85.5% | 85.5% | 81.7% | 79.8% | 87.5% | 83.4% | 94.1% | 89.5% | 95.2% | 94.7% | 90.1% | 96.2% | 83.8% | 102% | 70.7%
CC(C)(Sc1cc(C(C)(C)C)c(O)c(C(C)(C)C)c1)Sc1cc(C(C)(C)C)c(O)c(C(C)(C)C)c1 | 88.5% | 92.3% | 85.6% | 105% | 108% | 90.4% | 96.2% | 94.3% | 79.1% | 103% | 91.6% | 84.4% | 92.5% | 86.2% | 91.3% | 86.4% | 98.4% | 92.8% | 84.8% | 92.7% | 93% | 84.8% | 79.7% | 88.3% | 94.6% | 83.7% | 98.9% | 105% | 95.5% | 94.5% | 81.4% | 90.2% | 94%
CCOc1ccccc1N/N=C1/C(=O)N(c2nc(-c3ccccc3)cs2)N=C1C | 118% | 122% | 119% | 123% | 113% | 117% | 115% | 108% | 103% | 57.5% | 32.1% | 109% | 103% | 104% | 114% | 97.3% | 109% | 101% | 97.3% | 97.8% | 77.1% | 56.1% | 109% | 106% | 103% | 122% | 118% | 102% | 104% | 90.5% | 90% | 59.8% | 39.7%
Cc1nnc(C(C)C)n1[C@@H]1C[C@H]2CC[C@@H](C1)N2CC[C@H](NC(=O)C1CCC(F)(F)CC1)c1ccccc1 | 70.8% | 93.7% | 112% | 93.1% | 98.7% | 103% | 107% | 104% | 103% | 84.5% | 25.5% | 83.6% | 82.9% | 95.2% | 91.3% | 84.5% | 99.9% | 92% | 88.5% | 84.3% | 91.3% | 26.3% | 68.3% | 93.2% | 82.6% | 84.8% | 93.2% | 95.5% | 95.1% | 90.3% | 84.4% | 67.1% | 29.9%
OC[C@H]1OC(O)C[C@@H](O)[C@@H]1O (stereo partly drawn) | 110% | 113% | 127% | 125% | 125% | 128% | 121% | 135% | 109% | 122% | 52.4% | – | – | – | – | – | – | – | – | – | – | – | 109% | 118% | 128% | 125% | 137% | 123% | 120% | 142% | 128% | 129% | 68%
O=C(Nc1ccccc1)Nc1ccc(-c2ccc(C(=O)[C@@H]3CCC[C@H]3C(=O)O)cc2)cc1 | 109% | 122% | 103% | 94.1% | 119% | 98.3% | 99% | 77% | 67.2% | 66.7% | 56.5% | 109% | 111% | 98.6% | 101% | 110% | 97.7% | 100% | 95.9% | 90.6% | 83.5% | 69.5% | 105% | 121% | 114% | 105% | 122% | 97.9% | 88.8% | 96% | 81.8% | 73.7% | 59.7%
CC1=CC/2=C(C=C1C)N(C[C@@H](O)[C@@H](O)[C@@H](O)CO)C/3=N/C(=O)NC(=O)C3=N2 | 130% | 119% | 119% | 115% | 124% | 135% | 139% | 125% | 89.1% | 127% | 46.2% | 108% | 108% | 116% | 118% | 116% | 117% | 110% | 120% | 108% | 111% | 98.5% | 113% | 126% | 113% | 123% | 126% | 123% | 128% | 123% | 108% | 107% | 90.1%
Cc1cc(/C=c2/sc3nc4ccccc4n3c2=O)c(C)n1-c1ccccc1 | 117% | 113% | 128% | 117% | 132% | 120% | 130% | 119% | 128% | 113% | 123% | 111% | 128% | 115% | 127% | 125% | 126% | 105% | 111% | 119% | 109% | 104% | 121% | 127% | 115% | 137% | 126% | 127% | 121% | 127% | 126% | 133% | 121%
CN1CCC(CNc2ccc3ncc(-c4cccc(OC(F)(F)F)c4)n3n2)CC1 | 101% | 106% | 112% | 113% | 97.8% | 125% | 114% | 104% | 91% | 70.7% | 5.88% | 87.2% | 83.3% | 85.2% | 99.5% | 89.4% | 91.4% | 97.9% | 85.8% | 85.6% | 73.5% | 5.17% | 116% | 93.1% | 97.1% | 88.2% | 99.4% | 97.5% | 104% | 94.9% | 79.3% | 68.5% | 4.98%
CC(C)[C@H](O)C(=O)N[C@@H](C)C(=O)N[C@@H]1C(=O)N(C)CCc2ccccc21 | 93.5% | 132% | 111% | 113% | 113% | 125% | 109% | 101% | 101% | 92.6% | 76.7% | 98.7% | 119% | 117% | 114% | 117% | 98.5% | 125% | 105% | 108% | 110% | 92.5% | 112% | 109% | 123% | 112% | 110% | 114% | 108% | 108% | 112% | 103% | 97.2%
C/C=C(\C)C(=O)N[C@@H](c1ccccc1)[C@@H](O)C(=O)O[C@H]1C[C@@]2(O)[C@@H](OC(=O)c3ccccc3)[C@@H]3[C@]4(OC(C)=O)CO[C@@H]4C[C@H](O)[C@@]3(C)C(=O)[C@H](OC(C)=O)C(=C1C)C2(C)C | 25.1% | 23.3% | 26.8% | 30.3% | 29.7% | 27.4% | 23.4% | 26.9% | 24.1% | 28.9% | 20.7% | 38.9% | 13.2% | 17.4% | 13.8% | 14.7% | 14.3% | 13% | 15.6% | 12.4% | 11.3% | 9.52% | 47.4% | 17.8% | 21.3% | 20.2% | 17.5% | 20.3% | 17.2% | 16.1% | 19.8% | 21.3% | 16.6%
